Experimental data from patent publication US20190248739A1 (NEWLINK GENETICS CORPORATION, priority 2015, published 2019).
Where a name gives a salt, the structure may show the parent alone. Each block holds one compound with its values, some of them ahead of it.

Assays:
[1] = pharmacokinetic testing of indoximod prodrugs in liquid formulation in mice; settings: mice, oral, 50 mg/kg
Experimental: Blood samples (0.1-0.2 mL) were collected from the femoral artery port from rats or by retro-orbital bleeding from mice and plasma was immediately collected by centrifugation and stored on dry ice to avoid prodrug hydrolysis after plasma collection. […] The pharmacokinetic parameters reflect the average of individual parameter values obtained from each individual rat (n) or one common parameter from a single pharmacokinetic curve derived from blood samples obtained from a group of mice (n).

[2] = pharmacokinetic testing of indoximod prodrugs in liquid formulation in rats; format: in vivo; settings: oral solution, 50 mg/kg
[3] = hygroscopicity and stability of indoximod and its salts; format: physicochemical; settings: Table 2, in % (unit assumed)
[4] = pharmacokinetic testing of indoximod salts in capsule formulation in rats; format: in vivo; settings: capsules
Experimental: Three dose levels were investigated: 37, 185 or 500 μmol/kg.
Capsules were manually filled and the composition uniformity of a representative sample of capsules from each batch was verified by weight and by LC-MS/MS to determine the average indoximod content.
Rats were fasted 16 h prior to dosing to eliminate any confounding food effects, and food was returned 2 h after dosing.

[5] = solubility of indoximod and its salts in water, buffers and SGF; format: physicochemical; settings: 25° C.
[6] = crossover pharmacokinetic study of indoximod free base, salts and SDD in cynomolgus monkeys; format: in vivo; settings: for % Increase over indoximod FB (AUC) / % Increase over indoximod FB (Cmax) / AUC(0 −> 48 h) / Cmax: oral
Experimental: The SDD suspension formulations were prepared in 0.5% methylcellulose (Methocel).

[7] = 37 μmol/kg, listed as Indoximod phosphate, phosphate
[8] = 185 μmol/kg, listed as Indoximod phosphate, phosphate
[9] = 500 μmol/kg, listed as Indoximod phosphate, phosphate
[10] = both dose levels (275 and 825 μmol/kg)
[11] = 37 μmol/kg, listed as Indoximod hydrochloride salt
[12] = 185 μmol/kg, listed as Indoximod hydrochloride salt
[13] = 500 μmol/kg, listed as Indoximod hydrochloride salt

change in indoximod AUC versus indoximod [1]: decrease
change in indoximod Cmax versus indoximod [1]: decrease
change in indoximod AUC versus indoximod [2]: increase
change in indoximod Cmax versus indoximod [2]: increase
SMILES: CCOC(=O)[C@H](N)Cc1cn(C)c2ccccc12 [NLG-1283, ethyl 1-methyl-D-tryptophanate hydrochloride]

change in indoximod AUC versus indoximod [1]: significant increase
change in indoximod Cmax versus indoximod [1]: significant increase
change in indoximod AUC versus indoximod [2]: does not produce a significant increase
change in indoximod Cmax versus indoximod [2]: does not produce a significant increase
SMILES: CC(C)OC(=O)[C@H](N)Cc1cn(C)c2ccccc12 [NLG-1284, isopropyl 1-methyl-D-tryptophanate hydrochloride]

Hygroscopicity (0-80% RH) ([3]; phosphate): 1.7
% Increase over indoximod Free Base (AUC) [4, 7]: significant increase
% Increase over indoximod Free Base (Cmax) [4, 7]: significant increase
% Increase over indoximod Free Base (AUC) ([4]; 37 μmol/kg, phosphate): 43%
% Increase over indoximod Free Base (Cmax) ([4]; 37 μmol/kg, phosphate): 40%
AUC(0 −> ∞) ([4]; 37 μmol/kg, phosphate): 558 ± 185 µM·h
Cmax ([4]; 37 μmol/kg, phosphate): 22.3 ± 9 µM
% Increase over indoximod Free Base (AUC) [4, 8]: significant increase
% Increase over indoximod Free Base (Cmax) [4, 8]: significant increase
% Increase over indoximod Free Base (AUC) ([4]; 185 μmol/kg, phosphate): 34%
% Increase over indoximod Free Base (Cmax) ([4]; 185 μmol/kg, phosphate): 96%
AUC(0 −> ∞) ([4]; 185 μmol/kg, phosphate): 1446 ± 645 µM·h
Cmax ([4]; 185 μmol/kg, phosphate): 40.9 ± 5 µM
% Increase over indoximod Free Base (AUC) [4, 9]: non-statistically significant decrease
% Increase over indoximod Free Base (Cmax) [4, 9]: significant decrease
% Increase over indoximod Free Base (AUC) ([4]; 500 μmol/kg, phosphate): −34%
% Increase over indoximod Free Base (Cmax) ([4]; 500 μmol/kg, phosphate): −51%
AUC(0 −> ∞) ([4]; 500 μmol/kg, phosphate): 1902 ± 1288 µM·h
Cmax ([4]; 500 μmol/kg, phosphate): 37.2 ± 10 µM
Solubility (25° C., mg/mL) SGF ([5]; phosphate): 9.83 (NA) mg/mL
Solubility (25° C., mg/mL) Water ([5]; phosphate): 8.32 (NA) mg/mL
SMILES: Cn1cc(C[C@@H](N)C(=O)O)c2ccccc21 [indoximod H3PO4, (R)-1-carboxy-2-(1-methyl-1H-indol-3-yl)ethan-1-aminium dihydrogen phosphate]

increase in Cmax compared to indoximod free base capsules [6, 10]: 31-65%
increase in exposure compared to indoximod free base capsules [6, 10]: 37-53%
% Increase over indoximod FB (AUC) ([6]; 275 μmol/kg): 53%
% Increase over indoximod FB (Cmax) ([6]; 275 μmol/kg): 65%
AUC(0 −> 48 h) ([6]; 275 μmol/kg): 101 ± 18 µM·h
Cmax ([6]; 275 μmol/kg): 21.3 ± 8.9 µM
% Increase over indoximod FB (AUC) ([6]; 825 μmol/kg): 37%
% Increase over indoximod FB (Cmax) ([6]; 825 μmol/kg): 31%
AUC(0 −> 48 h) ([6]; 825 μmol/kg): 173 ± 75 µM·h
Cmax ([6]; 825 μmol/kg): 33.4 ± 12 µM
Hygroscopicity (0-80% RH) ([3]; listed as HCl Salt): 0.017
% Increase over indoximod Free Base (AUC) ([4]; 37 μmol/kg): −23%
% Increase over indoximod Free Base (Cmax) ([4]; 37 μmol/kg): −40%
AUC(0 −> ∞) ([4]; 37 μmol/kg): 299 ± 77 µM·h
Cmax ([4]; 37 μmol/kg): 9.5 ± 2 µM
% Increase over indoximod Free Base (AUC) [4, 11]: did not show a significant change
% Increase over indoximod Free Base (Cmax) [4, 11]: non-statistically significant decrease
% Increase over indoximod Free Base (AUC) ([4]; 185 μmol/kg): 38%
% Increase over indoximod Free Base (Cmax) ([4]; 185 μmol/kg): 84%
AUC(0 −> ∞) ([4]; 185 μmol/kg): 1493 ± 728 µM·h
Cmax ([4]; 185 μmol/kg): 38.4 ± 10 µM
% Increase over indoximod Free Base (AUC) [4, 12]: significant increase
% Increase over indoximod Free Base (Cmax) [4, 12]: statistically significant increase
% Increase over indoximod Free Base (AUC) ([4]; 500 μmol/kg): −6%
% Increase over indoximod Free Base (Cmax) ([4]; 500 μmol/kg): −42%
AUC(0 −> ∞) ([4]; 500 μmol/kg): 2706 ± 847 µM·h
Cmax ([4]; 500 μmol/kg): 44.4 ± 8 µM
% Increase over indoximod Free Base (AUC) [4, 13]: did not show a significant change
% Increase over indoximod Free Base (Cmax) [4, 13]: statistically significant decrease
pH of the SGF solution (in brackets) ([5]; SGF solubility test, listed as HCl Salt): 1.03
Solubility (25° C., mg/mL) SGF ([5]; listed as HCl Salt): > 200 mg/mL
Solubility (25° C., mg/mL) SGF ([5]; listed as hydrochloride salt): > 200 mg/mL
pH of the water solution (in brackets) ([5]; water solubility test, listed as HCl Salt): 1.06
Solubility (25° C., mg/mL) Water ([5]; listed as HCl Salt): > 200 mg/mL
Solubility (25° C., mg/mL) Water ([5]; listed as hydrochloride salt): > 200 mg/mL
SMILES: Cn1cc(C[C@@H](N)C(=O)O)c2ccccc21 [indoximod HCl, (R)-1-carboxy-2-(1-methyl-1H-indol-3-yl)ethan-1-aminium chloride]
